In article PMC7736581, “Activation of the IRE1 RNase through remodeling of the kinase front pocket by ATP-competitive ligands” (Nature Communications, 2020) one finds inhibition data, which are given here for three compounds.

Among the targets are CDK2/cyclinA (Homo sapiens, UniProt P24941); KDR (Homo sapiens, UniProt P35968); Met (Homo sapiens, UniProt P08581); PAK1 (Homo sapiens, UniProt Q13153).
Holding throughout (assay): biochemical
Common to all, as to design: Invitrogen kinase panel: Z'Lyte activity (ATP at Km) or LanthaScreen competitive ATP-site binding, percent inhibition
(In TR-FRET formats the signal depends on donor and acceptor labels being close together.)

For a further assay, the target named is T1, Aurora_A (Homo sapiens, UniProt O14965).
T1 construct: gene AURKA
T1 sequence (O14965 1-403): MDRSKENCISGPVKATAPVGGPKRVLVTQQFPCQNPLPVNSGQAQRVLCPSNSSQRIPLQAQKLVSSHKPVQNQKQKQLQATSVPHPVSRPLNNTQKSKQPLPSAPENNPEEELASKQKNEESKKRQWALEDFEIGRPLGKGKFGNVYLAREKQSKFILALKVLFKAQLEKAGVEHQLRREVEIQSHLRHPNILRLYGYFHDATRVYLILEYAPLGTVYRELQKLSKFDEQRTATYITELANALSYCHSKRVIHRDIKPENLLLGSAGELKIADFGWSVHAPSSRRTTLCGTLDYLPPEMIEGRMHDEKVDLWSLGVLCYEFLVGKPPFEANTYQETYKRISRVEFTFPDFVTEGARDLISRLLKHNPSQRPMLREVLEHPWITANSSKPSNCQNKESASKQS

The target in a further assay is T2, Aurora_B (Homo sapiens, UniProt Q96GD4).
T2 construct: gene AURKB

A further assay has as its target T3, ERK2 (Homo sapiens, UniProt P28482).
T3 construct: gene MAPK1

For the next assay, the target named is T4, IKK_beta (Homo sapiens, UniProt O14920).
T4 construct: gene IKBKB
T4 sequence (O14920 1-756): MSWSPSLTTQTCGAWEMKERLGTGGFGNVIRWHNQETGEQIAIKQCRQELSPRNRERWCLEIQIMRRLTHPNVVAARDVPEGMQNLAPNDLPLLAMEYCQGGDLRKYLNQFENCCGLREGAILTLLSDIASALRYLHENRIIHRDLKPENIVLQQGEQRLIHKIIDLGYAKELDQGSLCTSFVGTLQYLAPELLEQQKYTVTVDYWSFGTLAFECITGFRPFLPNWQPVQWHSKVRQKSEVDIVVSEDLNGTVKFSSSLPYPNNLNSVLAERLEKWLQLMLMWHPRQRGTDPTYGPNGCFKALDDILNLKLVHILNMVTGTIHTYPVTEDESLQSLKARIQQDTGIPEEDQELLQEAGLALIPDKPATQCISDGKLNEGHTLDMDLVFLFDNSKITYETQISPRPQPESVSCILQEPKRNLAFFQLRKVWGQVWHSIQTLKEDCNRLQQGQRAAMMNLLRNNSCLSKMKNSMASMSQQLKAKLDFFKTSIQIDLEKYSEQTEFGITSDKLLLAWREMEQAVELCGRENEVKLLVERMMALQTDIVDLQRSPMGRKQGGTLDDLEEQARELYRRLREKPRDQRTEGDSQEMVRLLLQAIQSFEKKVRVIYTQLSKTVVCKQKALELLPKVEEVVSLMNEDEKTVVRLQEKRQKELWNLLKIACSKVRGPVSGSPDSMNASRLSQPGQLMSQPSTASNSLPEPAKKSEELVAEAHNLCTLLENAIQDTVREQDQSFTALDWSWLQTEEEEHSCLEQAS

Another assay deals with T5, PhK_gamma1 (Homo sapiens, UniProt Q16816).
T5 construct: gene PHKG1

The target of a further assay is T6, RSK2 (Homo sapiens, UniProt P51812).
T6 construct: gene RPS6KA3

In the next assay the target is T7, TBK1 (Homo sapiens, UniProt Q9UHD2).
T7 sequence (Q9UHD2 1-729): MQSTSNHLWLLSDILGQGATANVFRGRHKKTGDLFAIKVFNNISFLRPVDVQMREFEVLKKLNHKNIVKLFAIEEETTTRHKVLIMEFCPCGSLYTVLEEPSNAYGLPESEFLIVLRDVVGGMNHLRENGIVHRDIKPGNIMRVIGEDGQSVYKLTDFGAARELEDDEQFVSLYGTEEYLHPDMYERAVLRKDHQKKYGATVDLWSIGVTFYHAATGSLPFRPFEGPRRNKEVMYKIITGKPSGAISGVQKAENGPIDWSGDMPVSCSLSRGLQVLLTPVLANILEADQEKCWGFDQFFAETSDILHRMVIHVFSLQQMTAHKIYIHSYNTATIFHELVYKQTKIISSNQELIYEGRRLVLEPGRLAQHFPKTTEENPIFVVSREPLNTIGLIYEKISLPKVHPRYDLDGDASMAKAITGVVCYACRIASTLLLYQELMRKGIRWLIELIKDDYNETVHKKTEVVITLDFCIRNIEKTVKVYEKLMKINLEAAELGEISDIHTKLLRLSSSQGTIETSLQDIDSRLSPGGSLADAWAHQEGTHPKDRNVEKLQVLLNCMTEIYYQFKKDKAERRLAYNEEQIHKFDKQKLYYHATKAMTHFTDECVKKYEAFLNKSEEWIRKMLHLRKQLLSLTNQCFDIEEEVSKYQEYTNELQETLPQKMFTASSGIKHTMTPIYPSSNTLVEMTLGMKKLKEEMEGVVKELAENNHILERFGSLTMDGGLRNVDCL

T3 sequence (P28482 whole entry): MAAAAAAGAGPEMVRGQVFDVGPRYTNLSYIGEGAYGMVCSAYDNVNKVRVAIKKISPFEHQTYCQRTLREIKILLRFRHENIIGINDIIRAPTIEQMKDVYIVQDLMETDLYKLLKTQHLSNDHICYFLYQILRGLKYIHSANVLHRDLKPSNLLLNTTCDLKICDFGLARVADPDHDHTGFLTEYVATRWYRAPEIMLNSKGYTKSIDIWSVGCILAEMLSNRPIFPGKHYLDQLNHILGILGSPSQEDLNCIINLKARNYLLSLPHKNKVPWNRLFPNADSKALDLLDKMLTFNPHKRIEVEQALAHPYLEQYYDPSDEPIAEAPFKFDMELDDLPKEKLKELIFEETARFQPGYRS
T5 sequence (Q16816 whole entry): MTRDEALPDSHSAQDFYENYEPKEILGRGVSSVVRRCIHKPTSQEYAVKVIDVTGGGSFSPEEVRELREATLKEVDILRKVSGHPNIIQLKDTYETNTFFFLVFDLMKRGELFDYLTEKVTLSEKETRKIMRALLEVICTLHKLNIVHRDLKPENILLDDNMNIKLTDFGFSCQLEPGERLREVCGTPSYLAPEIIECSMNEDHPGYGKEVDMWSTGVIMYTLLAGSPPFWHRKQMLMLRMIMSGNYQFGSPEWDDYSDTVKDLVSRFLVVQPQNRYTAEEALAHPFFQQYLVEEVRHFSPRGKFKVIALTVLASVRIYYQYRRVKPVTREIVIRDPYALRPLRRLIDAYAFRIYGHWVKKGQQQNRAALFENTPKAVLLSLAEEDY
Chain of Met (P08581 whole entry): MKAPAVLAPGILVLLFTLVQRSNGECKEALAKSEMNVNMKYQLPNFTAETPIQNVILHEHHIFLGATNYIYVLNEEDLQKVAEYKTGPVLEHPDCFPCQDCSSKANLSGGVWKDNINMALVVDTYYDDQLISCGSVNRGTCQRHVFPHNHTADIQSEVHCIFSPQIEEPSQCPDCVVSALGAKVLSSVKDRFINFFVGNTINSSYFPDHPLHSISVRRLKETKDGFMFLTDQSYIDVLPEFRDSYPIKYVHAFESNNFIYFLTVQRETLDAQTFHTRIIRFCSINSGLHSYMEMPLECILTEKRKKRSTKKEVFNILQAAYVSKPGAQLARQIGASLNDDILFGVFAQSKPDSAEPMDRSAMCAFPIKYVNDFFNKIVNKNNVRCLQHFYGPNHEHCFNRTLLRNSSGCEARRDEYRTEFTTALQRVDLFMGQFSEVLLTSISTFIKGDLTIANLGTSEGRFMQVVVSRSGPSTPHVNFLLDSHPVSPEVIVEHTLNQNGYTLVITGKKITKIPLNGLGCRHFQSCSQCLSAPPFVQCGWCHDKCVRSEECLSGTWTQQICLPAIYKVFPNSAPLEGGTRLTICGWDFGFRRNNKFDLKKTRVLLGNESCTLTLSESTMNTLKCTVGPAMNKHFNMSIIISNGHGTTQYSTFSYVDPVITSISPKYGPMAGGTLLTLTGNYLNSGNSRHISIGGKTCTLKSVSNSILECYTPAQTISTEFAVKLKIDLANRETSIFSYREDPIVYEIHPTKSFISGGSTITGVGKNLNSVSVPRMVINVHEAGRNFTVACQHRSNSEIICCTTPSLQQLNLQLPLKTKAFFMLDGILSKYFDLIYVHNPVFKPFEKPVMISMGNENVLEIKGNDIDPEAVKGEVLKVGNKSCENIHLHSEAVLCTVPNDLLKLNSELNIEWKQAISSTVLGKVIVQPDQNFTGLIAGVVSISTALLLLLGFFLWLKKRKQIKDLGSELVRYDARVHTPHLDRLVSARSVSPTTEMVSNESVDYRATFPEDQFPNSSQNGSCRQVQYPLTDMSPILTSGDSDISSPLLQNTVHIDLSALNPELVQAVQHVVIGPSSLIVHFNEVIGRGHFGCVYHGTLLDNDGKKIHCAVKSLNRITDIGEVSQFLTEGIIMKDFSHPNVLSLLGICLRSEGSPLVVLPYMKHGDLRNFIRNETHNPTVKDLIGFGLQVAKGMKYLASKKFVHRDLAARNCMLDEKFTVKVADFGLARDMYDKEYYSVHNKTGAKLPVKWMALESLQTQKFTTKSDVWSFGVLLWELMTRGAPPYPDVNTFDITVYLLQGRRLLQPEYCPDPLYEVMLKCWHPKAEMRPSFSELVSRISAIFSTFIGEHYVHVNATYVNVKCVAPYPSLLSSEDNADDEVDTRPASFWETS
T6 sequence (P51812 whole entry): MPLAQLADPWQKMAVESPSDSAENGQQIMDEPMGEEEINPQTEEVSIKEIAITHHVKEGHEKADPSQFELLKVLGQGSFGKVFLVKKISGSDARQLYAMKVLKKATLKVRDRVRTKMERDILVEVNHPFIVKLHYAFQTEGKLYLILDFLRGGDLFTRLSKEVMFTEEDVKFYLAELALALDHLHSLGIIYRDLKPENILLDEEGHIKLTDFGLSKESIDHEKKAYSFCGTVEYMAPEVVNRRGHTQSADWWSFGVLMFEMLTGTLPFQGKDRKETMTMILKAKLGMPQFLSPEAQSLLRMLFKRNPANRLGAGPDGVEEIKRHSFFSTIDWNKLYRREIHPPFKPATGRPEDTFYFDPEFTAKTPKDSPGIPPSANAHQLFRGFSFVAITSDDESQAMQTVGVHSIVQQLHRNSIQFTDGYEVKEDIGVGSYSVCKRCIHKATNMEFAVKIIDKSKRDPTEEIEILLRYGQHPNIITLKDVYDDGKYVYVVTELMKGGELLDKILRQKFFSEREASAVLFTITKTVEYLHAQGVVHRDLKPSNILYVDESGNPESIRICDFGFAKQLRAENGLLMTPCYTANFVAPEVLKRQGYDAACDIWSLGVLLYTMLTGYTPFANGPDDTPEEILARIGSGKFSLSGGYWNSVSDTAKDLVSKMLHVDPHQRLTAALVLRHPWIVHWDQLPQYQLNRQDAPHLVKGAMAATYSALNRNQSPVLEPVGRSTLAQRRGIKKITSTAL
Chain of PAK1 (Q13153 whole entry): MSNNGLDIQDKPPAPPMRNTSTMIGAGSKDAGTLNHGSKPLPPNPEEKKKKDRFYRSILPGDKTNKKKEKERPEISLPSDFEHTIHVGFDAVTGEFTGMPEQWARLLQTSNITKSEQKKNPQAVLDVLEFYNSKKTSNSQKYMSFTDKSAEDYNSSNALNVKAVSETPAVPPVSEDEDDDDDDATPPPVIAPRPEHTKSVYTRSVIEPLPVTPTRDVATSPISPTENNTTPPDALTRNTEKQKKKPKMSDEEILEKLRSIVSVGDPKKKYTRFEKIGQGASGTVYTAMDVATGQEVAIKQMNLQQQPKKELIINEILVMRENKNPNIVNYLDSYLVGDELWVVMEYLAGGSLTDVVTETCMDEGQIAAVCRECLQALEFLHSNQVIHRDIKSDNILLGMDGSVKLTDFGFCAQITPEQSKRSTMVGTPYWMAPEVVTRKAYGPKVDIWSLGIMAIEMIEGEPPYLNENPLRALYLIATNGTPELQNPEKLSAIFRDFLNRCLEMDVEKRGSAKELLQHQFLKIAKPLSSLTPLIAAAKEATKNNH
T2 sequence (Q96GD4 whole entry): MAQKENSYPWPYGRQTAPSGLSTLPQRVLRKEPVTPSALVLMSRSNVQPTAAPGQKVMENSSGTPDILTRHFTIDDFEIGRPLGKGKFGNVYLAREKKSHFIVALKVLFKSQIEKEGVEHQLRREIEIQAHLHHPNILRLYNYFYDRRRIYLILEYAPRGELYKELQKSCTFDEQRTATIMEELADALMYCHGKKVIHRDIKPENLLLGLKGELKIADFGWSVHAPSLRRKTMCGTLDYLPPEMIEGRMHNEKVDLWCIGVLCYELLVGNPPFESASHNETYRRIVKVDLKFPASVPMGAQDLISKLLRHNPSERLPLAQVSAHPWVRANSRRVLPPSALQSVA

Broadly, the inhibition is the change of the read-out against control, counted positive when it falls. With `CC#CC(=O)Nc1cccc2c(Oc3ncccc3-c3ccnc(N[C@H]4CCCNC4)n3)c(C)ccc12` [G-7658], the inhibition at 1 µM at Aurora_A was -7%; on Aurora_B, 2%; at CDK2/cyclinA, 6%; at ERK2, 2%; at IKK_beta, 0%; at KDR it was -4%. Besides, the inhibition at 1 µM was 5% at Met; 5% at PAK1; 1% on PhK_gamma1; 0% at RSK2; 0% on TBK1.

As to `CCOC(=O)Nc1cccc2c(Oc3ncccc3-c3ccnc(N[C@H]4CCCNC4)n3)c(C)ccc12` [G-1749], the inhibition at 1 µM on Aurora_A was -9.5%; at Aurora_B, 2.5%; on CDK2/cyclinA, 6.5%; on ERK2 it was 6%; at IKK_beta, -2%; at KDR, -18%. For the same compound, the inhibition at 1 µM on Met is 4%; at PAK1, 7%; on PhK_gamma1, 2%; at RSK2, 3.5%; at TBK1, -0.5%.

In the case of `O=c1cc(-c2n[nH]c3ncc(-c4c(F)cccc4F)cc23)nc(N2CCC(O)CC2)[nH]1` [G-9807], the inhibition at 1 µM was determined as 92% at Aurora_A; 82.2% at Aurora_B; 100% on CDK2/cyclinA; 78.3% on ERK2; 80.4% at IKK_beta; 96.3% at KDR. Also, the inhibition at 1 µM was 88.8% on Met; 85.7% on PAK1; 92.2% at PhK_gamma1; 98% on RSK2; 95.7% at TBK1.
